Measured values taken from patent US9211310B2, “Use of a Chinese medicine composition in preparing medicaments for treating secondary prevention of myocardial infarction” (TASLY PHARMACEUTICAL GROUP CO., LTD, priority 2010, dated 2015).

Tested on: patients after acute myocardial infarction
Assay: Life quality, Seattle Angina Questionnaire (SAQ), same clinical trial
Type: in vivo, human
Settings: PP
Text: 3508 patients who were in accordance with the diagnostic standards of AMI for 28 days to 2 years and differentiated as Qi deficiency and blood stagnation syndrome by TCM were studied. 0.5 g Chinese medicine composition prepared by the method of EXAMPLE 1 (Coded as QSYQ) was administrated half an hour after meal, 3 times per day.
There were 19 questions in the Seattle angina questionnaire (SAQ), including 5 parts: physical limitation (PL), anginal stability (AS), anginal frequency (AF), treatment satisfaction (TS) and disease perception (DP). After being given necessary explanation by doctors, the questions were answered independently by patients.
They included the overall survival time, angina pectoris score, TCM symptom score and life quality score, where angina pectoris score, TCM symptom score and life quality score were evaluated at randomization, in 1st, 3rd, 6th, 9th, 12th month after treatment and 18th month after follow-up.
All evaluation results of SAQ were described during the period of observation, and Wilcoxon rank sum test was used for inter-group comparison.
The evaluation results in the SAQ were depicted in different observations, and inter-group comparison was tested by Wilcoxon Rank-sum test.

[1] = Follow-up, second line headed Not limited (r60)

CC(=O)Oc1ccccc1C(=O)O [Control group, aspirine]
SAQ 7th question, Highly satisfied: % of patients (Baseline): (20.32%)
SAQ 7th question, Highly satisfied: number of patients (Baseline): 304
SAQ 7th question, Mostly dissatisfied: % of patients (Baseline): (4.88%)
SAQ 7th question, Mostly dissatisfied: number of patients (Baseline): 73
SAQ 7th question, Mostly satisfied: % of patients (Baseline): (46.52%)
SAQ 7th question, Mostly satisfied: number of patients (Baseline): 696
SAQ 7th question, Partly satisfied: % of patients (Baseline): (27.94%)
SAQ 7th question, Partly satisfied: number of patients (Baseline): 418
SAQ Question 1-1 Mildly limited, number of patients (Baseline): 30
SAQ Question 1-1 Mildly limited, percent of patients (Baseline): (2.01%)
SAQ Question 1-1 Moderately limited, number of patients (Baseline): 13
SAQ Question 1-1 Moderately limited, percent of patients (Baseline): (0.87%)
SAQ Question 1-1 Not limited, number of patients (Baseline): 1359
SAQ Question 1-1 Not limited, percent of patients (Baseline): (90.96%)
SAQ Question 1-1 Other reasons, number of patients (Baseline): 4
SAQ Question 1-1 Other reasons, percent of patients (Baseline): (0.27%)
SAQ Question 1-1 Severely limited, number of patients (Baseline): 1
SAQ Question 1-1 Severely limited, percent of patients (Baseline): (0.07%)
SAQ Question 1-1 Slightly limited, number of patients (Baseline): 87
SAQ Question 1-1 Slightly limited, percent of patients (Baseline): (5.82%)
SAQ Question 1-2 Mildly limited, number of patients (Baseline): 42
SAQ Question 1-2 Mildly limited, percent of patients (Baseline): (2.81%)
SAQ Question 1-2 Moderately limited, number of patients (Baseline): 13
SAQ Question 1-2 Moderately limited, percent of patients (Baseline): (0.87%)
SAQ Question 1-2 Not limited, number of patients (Baseline): 1319
SAQ Question 1-2 Not limited, percent of patients (Baseline): (88.29%)
SAQ Question 1-2 Other reasons, number of patients (Baseline): 5
SAQ Question 1-2 Other reasons, percent of patients (Baseline): (0.33%)
SAQ Question 1-2 Severely limited, number of patients (Baseline): 2
SAQ Question 1-2 Severely limited, percent of patients (Baseline): (0.13%)
SAQ Question 1-2 Slightly limited, percent of patients (Baseline): (7.56%)
SAQ Question 1-6: Mildly limited, patients (%) (Baseline): (20.58%)
SAQ Question 1-6: Moderately limited, patients (%) (Baseline): (18.43%)
SAQ Question 1-6: Not limited, patients (%) (Baseline): (25.02%)
SAQ Question 1-6: Other reasons, patients (%) (Baseline): (1.01%)
SAQ Question 1-6: Severely limited, patients (%) (Baseline): (6.99%)
SAQ Question 1-6: Slightly limited, patients (%) (Baseline): (27.98%)
SAQ Question 1-7: Mildly limited, patients (%) (Baseline): (25.03%)
SAQ Question 1-7: Moderately limited, patients (%) (Baseline): (19.44%)
SAQ Question 1-7: Not limited, patients (%) (Baseline): (9.62%)
SAQ Question 1-7: Other reasons, patients (%) (Baseline): (3.14%)
SAQ Question 1-7: Severely limited, patients (%) (Baseline): (21.49%)
SAQ Question 1-7: Slightly limited, patients (%) (Baseline): (21.28%)
SAQ Question 1-8: Mildly limited, patients (%) (Baseline): (24.40%)
SAQ Question 1-8: Moderately limited, patients (%) (Baseline): (22.43%)
SAQ Question 1-8: Not limited, patients (%) (Baseline): (7.43%)
SAQ Question 1-8: Other reasons, patients (%) (Baseline): (2.52%)
SAQ Question 1-8: Severely limited, patients (%) (Baseline): (26.45%)
SAQ Question 1-8: Slightly limited, patients (%) (Baseline): (16.77%)
8th question: Dissatisfied, patients (%) (Follow-up): (0.07%)
8th question: Highly satisfied, patients (%) (Follow-up): (28.16%)
8th question: Mostly dissatisfied, patients (%) (Follow-up): (0.64%)
8th question: Mostly satisfied, patients (%) (Follow-up): (60.27%)
8th question: Partly satisfied, patients (%) (Follow-up): (10.87%)
9th question: Few, patients (%) (Follow-up): (44.23%)
9th question: Mild, patients (%) (Follow-up): (27.32%)
9th question: Moderate, patients (%) (Follow-up): (3.87%)
9th question: Severe, patients (%) (Follow-up): (0.14%)
9th question: Uneffective, patients (%) (Follow-up): (24.44%)
10th question: Dissatisfied, patients (%) (Follow-up): (18.11%)
10th question: Highly satisfied, patients (%) (Follow-up): (9.51%)
10th question: Mostly dissatisfied, patients (%) (Follow-up): (19.38%)
10th question: Mostly satisfied, patients (%) (Follow-up): (32.21%)
10th question: Partly satisfied, patients (%) (Follow-up): (20.79%)
11th question: Continuously worried, patients (%) (Follow-up): (1.34%)
11th question: No worried, patients (%) (Follow-up): (8.74%)
11th question: Occasionally worried, patients (%) (Follow-up): (38.83%)
11th question: Often worried, patients (%) (Follow-up): (6.84%)
11th question: Seldom worried, patients (%) (Follow-up): (44.26%)
SAQ 4th question, 1-2 times per week: % of patients (Follow-up): (13.17%)
SAQ 4th question, 1-2 times per week: number of patients (Follow-up): 186
SAQ 4th question, 1-3 times per week: % of patients (Follow-up): (2.83%)
SAQ 4th question, 1-3 times per week: number of patients (Follow-up): 40
SAQ 4th question, <1 time per week: % of patients (Follow-up): (16.08%)
SAQ 4th question, <1 time per week: number of patients (Follow-up): 227
SAQ 4th question, Not used: % of patients (Follow-up): (66.08%)
SAQ 4th question, Not used: number of patients (Follow-up): 933
SAQ 4th question, ≧3 times per week: % of patients (Follow-up): (1.84%)
SAQ 4th question, ≧3 times per week: number of patients (Follow-up): 26
SAQ 4th question, ≧4 times per day: % of patients (Follow-up): (0.00%)
SAQ 4th question, ≧4 times per day: number of patients (Follow-up): 0
SAQ 5th question, 1-2 times per week: % of patients (Follow-up): (32.86%)
SAQ 5th question, 1-2 times per week: number of patients (Follow-up): 465
SAQ 5th question, 1-3 times per day: % of patients (Follow-up): (3.18%)
SAQ 5th question, 1-3 times per day: number of patients (Follow-up): 45
SAQ 5th question, <1 time per week: % of patients (Follow-up): (31.24%)
SAQ 5th question, <1 time per week: number of patients (Follow-up): 442
SAQ 5th question, No onset: % of patients (Follow-up): (7.49%)
SAQ 5th question, No onset: number of patients (Follow-up): 106
SAQ 5th question, ≧3 times per week: % of patients (Follow-up): (25.09%)
SAQ 5th question, ≧3 times per week: number of patients (Follow-up): 355
SAQ 5th question, ≧4 times per day: % of patients (Follow-up): (0.14%)
SAQ 5th question, ≧4 times per day: number of patients (Follow-up): 2
SAQ 6th question, Dissatisfied: % of patients (Follow-up): (0.00%)
SAQ 6th question, Dissatisfied: number of patients (Follow-up): 0
SAQ 6th question, Highly satisfied: % of patients (Follow-up): (28.52%)
SAQ 6th question, Highly satisfied: number of patients (Follow-up): 405
SAQ 6th question, Mostly dissatisfied: % of patients (Follow-up): (0.63%)
SAQ 6th question, Mostly dissatisfied: number of patients (Follow-up): 9
SAQ 6th question, Mostly satisfied: % of patients (Follow-up): (62.25%)
SAQ 6th question, Mostly satisfied: number of patients (Follow-up): 884
SAQ 6th question, Partly satisfied: % of patients (Follow-up): (8.59%)
SAQ 6th question, Partly satisfied: number of patients (Follow-up): 122
SAQ 7th question, Dissatisfied: % of patients (Follow-up): (0.00%)
SAQ 7th question, Dissatisfied: number of patients (Follow-up): 0
SAQ 7th question, Highly satisfied: % of patients (Follow-up): (30.75%)
SAQ 7th question, Highly satisfied: number of patients (Follow-up): 436
SAQ 7th question, Mostly dissatisfied: % of patients (Follow-up): (0.28%)
SAQ 7th question, Mostly dissatisfied: number of patients (Follow-up): 4
SAQ 7th question, Mostly satisfied: % of patients (Follow-up): (62.13%)
SAQ 7th question, Mostly satisfied: number of patients (Follow-up): 881
SAQ 7th question, Partly satisfied: % of patients (Follow-up): (6.84%)
SAQ 7th question, Partly satisfied: number of patients (Follow-up): 97
SAQ Question 1-1 Mildly limited, number of patients (Follow-up): 6
SAQ Question 1-1 Mildly limited, percent of patients (Follow-up): (0.43%)
SAQ Question 1-1 Moderately limited, number of patients (Follow-up): 1
SAQ Question 1-1 Moderately limited, percent of patients (Follow-up): (0.07%)
SAQ Question 1-1 Not limited, number of patients (Follow-up): 1352
SAQ Question 1-1 Not limited, percent of patients (Follow-up): (95.95%)
SAQ Question 1-1 Other reasons, number of patients (Follow-up): 5
SAQ Question 1-1 Other reasons, percent of patients (Follow-up): (0.35%)
SAQ Question 1-1 Severely limited, number of patients (Follow-up): 1
SAQ Question 1-1 Severely limited, percent of patients (Follow-up): (0.07%)
SAQ Question 1-1 Slightly limited, number of patients (Follow-up): 44
SAQ Question 1-1 Slightly limited, percent of patients (Follow-up): (3.12%)
SAQ Question 1-2 Mildly limited, number of patients (Follow-up): 8
SAQ Question 1-2 Mildly limited, percent of patients (Follow-up): (0.57%)
SAQ Question 1-2 Moderately limited, number of patients (Follow-up): 0
SAQ Question 1-2 Moderately limited, percent of patients (Follow-up): (0.00%)
SAQ Question 1-2 Not limited, number of patients (Follow-up): 1336
SAQ Question 1-2 Not limited, percent of patients (Follow-up): (94.82%)
SAQ Question 1-2 Severely limited, number of patients (Follow-up): 2
SAQ Question 1-2 Severely limited, percent of patients (Follow-up): (0.14%)
SAQ Question 1-2 Slightly limited, number of patients (Follow-up): 56
SAQ Question 1-2 Slightly limited, percent of patients (Follow-up): (3.97%)
SAQ Question 1-6: Mildly limited, patients (%) (Follow-up): (11.32%)
SAQ Question 1-6: Moderately limited, patients (%) (Follow-up): (9.19%)
SAQ Question 1-6: Not limited, patients (%) (Follow-up): (41.95%)
SAQ Question 1-6: Other reasons, patients (%) (Follow-up): (0.85%)
SAQ Question 1-6: Severely limited, patients (%) (Follow-up): (2.28%)
SAQ Question 1-6: Slightly limited, patients (%) (Follow-up): (34.40%)
SAQ Question 1-7: Mildly limited, patients (%) (Follow-up): (21.92%)
SAQ Question 1-7: Moderately limited, patients (%) (Follow-up): (6.63%)
SAQ Question 1-7: Not limited, patients (%) (Follow-up): (22.35%)
SAQ Question 1-7: Other reasons, patients (%) (Follow-up): (2.60%)
SAQ Question 1-7: Severely limited, patients (%) (Follow-up): (11.68%)
SAQ Question 1-7: Slightly limited, patients (%) (Follow-up): (34.82%)
SAQ Question 1-8: Mildly limited, patients (%) (Follow-up): (24.93%)
SAQ Question 1-8: Moderately limited, patients (%) (Follow-up): (11.85%)
SAQ Question 1-8: Not limited, patients (%) (Follow-up): (15.12%)
SAQ Question 1-8: Other reasons, patients (%) (Follow-up): (3.27%)
SAQ Question 1-8: Severely limited, patients (%) (Follow-up): (14.75%)
SAQ Question 1-8: Slightly limited, patients (%) (Follow-up): (30.09%)
SAQ Question 1-2 Not limited, number of patients [1]: 7
SAQ Question 1-2 Not limited, percent of patients [1]: (0.50%)
